The NIST ThermoML archive (doi:10.1021/je700338t)
± gives the expanded uncertainty stated by the source.

What was measured:
[1] = refractive index (Na D-line) (dimensionless); details: 298.15 K, 101.33 kPa, Liquid
[2] = 298.15 K, 101.33 kPa, Liquid
[3] = refractive index (Na D-line) (dimensionless); xn = mol fraction of the nth substance listed; details: 298.15 K, 101 kPa, Liquid
[4] = xn = mol fraction of the nth substance listed; details: 298.15 K, 101 kPa, Liquid; for mass density: Vibrating tube method

CO [methanol]
Details | refractive index | speed of sound [m/s]
[1], Standard Abbe refractometry | 1.3269 ± 0.0007 | –
[2], Sing-around technique in a fixed-path interferometer | – | 1102.9 ± 1.1

[2]
Details | mass density [kg/m3] | viscosity [mPa·s]
– | 786.654 ± 0.3 | 0.54 ± 0.03

C1CCOC1 [tetrahydrofuran]
Details | refractive index | speed of sound [m/s]
[1], Standard Abbe refractometry | 1.405 ± 0.0007 | –
[2], Sing-around technique in a fixed-path interferometer | – | 1278.2 ± 1.3

[2]
Details | mass density [kg/m3] | viscosity [mPa·s]
– | 882.008 ± 0.45 | 0.449 ± 0.026

C[S+](C)[O-] [dimethyl sulfoxide]
Details | refractive index | speed of sound [m/s]
[1], Standard Abbe refractometry | 1.4769 ± 0.0007 | –
[2], Sing-around technique in a fixed-path interferometer | – | 1485 ± 1.2

[2]
Details | mass density [kg/m3] | viscosity [mPa·s]
– | 1095.3 ± 0.19 | 1.961 ± 0.09

CCCCn1cc[n+](C)c1.F[P-](F)(F)(F)(F)F [1-butyl-3-methylimidazolium hexafluorophosphate] + CC#N
Details | refractive index, [3] | viscosity, [4] [mPa·s]
x1 = 0.0496 | 1.3575 ± 0.0006 | 0.556 ± 0.06
x1 = 0.1016 | 1.3687 ± 0.0006 | 0.864 ± 0.087
x1 = 0.147 | 1.3754 ± 0.0006 | 1.187 ± 0.12
x1 = 0.2022 | 1.3819 ± 0.0006 | 1.866 ± 0.17
x1 = 0.2995 | 1.3902 ± 0.0006 | 3.792 ± 0.34
x1 = 0.3524 | 1.3934 ± 0.0006 | 5.308 ± 0.45
x1 = 0.4036 | 1.3959 ± 0.0006 | 7.674 ± 0.6
x1 = 0.4337 | 1.3974 ± 0.0006 | 9.153 ± 0.69
x1 = 0.4955 | 1.3998 ± 0.0007 | 14.44 ± 1
x1 = 0.5892 | 1.4024 ± 0.0007 | 23.84 ± 1.6
x1 = 0.6857 | 1.4048 ± 0.0007 | 40.69 ± 2.7
x1 = 0.8046 | 1.4068 ± 0.0007 | 81.53 ± 11
x1 = 0.8055 | 1.4069 ± 0.0007 | 86.27 ± 13
x1 = 0.9176 | 1.4084 ± 0.0007 | 154.06 ± 47

CCCCn1cc[n+](C)c1.F[P-](F)(F)(F)(F)F [1-butyl-3-methylimidazolium hexafluorophosphate] + CO
Details | refractive index, [3] | viscosity, [4] [mPa·s]
x1 = 0.0503 | 1.348 ± 0.0009 | 0.913 ± 0.091
x1 = 0.0993 | 1.3636 ± 0.0009 | 1.483 ± 0.14
x1 = 0.1517 | 1.371 ± 0.0009 | 2.331 ± 0.21
x1 = 0.1969 | 1.3768 ± 0.0009 | 3.059 ± 0.27
x1 = 0.3024 | 1.3872 ± 0.0009 | 6.057 ± 0.5
x1 = 0.3531 | 1.3892 ± 0.002 | 8.072 ± 0.62
x1 = 0.4106 | 1.3941 ± 0.0009 | 11.03 ± 0.81
x1 = 0.451 | 1.3961 ± 0.001 | 13.52 ± 0.97
x1 = 0.502 | 1.3986 ± 0.001 | 17.29 ± 1.2
x1 = 0.6015 | 1.4015 ± 0.001 | 27.41 ± 1.8
x1 = 0.7082 | 1.4045 ± 0.001 | 45.95 ± 3
x1 = 0.7989 | 1.4066 ± 0.001 | 66.79 ± 5.4
x1 = 0.8889 | 1.4078 ± 0.001 | 107.94 ± 23

CCCCn1cc[n+](C)c1.F[P-](F)(F)(F)(F)F [1-butyl-3-methylimidazolium hexafluorophosphate] + C1CCOC1
Details | mass density, [4] [kg/m3] | refractive index, [3] | speed of sound, [4] [m/s] | viscosity, [4] [mPa·s]
x1 = 0.0199 | 911.565 ± 0.12 | – | 1279.2 ± 2.6 | –
x1 = 0.0376 | 936.57 ± 0.12 | – | 1279.9 ± 2.7 | –
x1 = 0.0502 | – | 1.4084 ± 0.0006 | – | 0.75 ± 0.077
x1 = 0.0737 | 979.097 ± 0.13 | – | 1287.9 ± 2.7 | –
x1 = 0.0967 | – | 1.4117 ± 0.0006 | – | 1.14 ± 0.11
x1 = 0.15 | 1055.63 ± 0.22 | – | 1312.6 ± 2.8 | –
x1 = 0.1524 | – | 1.4125 ± 0.0006 | – | 1.732 ± 0.16
x1 = 0.1999 | – | 1.4126 ± 0.0006 | – | 2.476 ± 0.22
x1 = 0.2003 | 1095.84 ± 0.27 | – | 1329.2 ± 2.8 | –
x1 = 0.2486 | 1129.41 ± 0.32 | – | 1343.7 ± 2.8 | –
x1 = 0.2969 | – | 1.413 ± 0.0007 | – | 4.937 ± 0.43
x1 = 0.3004 | 1159.97 ± 0.37 | – | 1357.3 ± 2.9 | –
x1 = 0.3484 | – | 1.4128 ± 0.0007 | – | 6.979 ± 0.56
x1 = 0.3491 | 1185.7 ± 0.43 | – | 1368.6 ± 2.9 | –
x1 = 0.3994 | – | 1.4127 ± 0.0007 | – | 10.06 ± 0.75
x1 = 0.4484 | – | 1.4126 ± 0.0007 | – | 14.54 ± 1
x1 = 0.4634 | 1235.91 ± 0.58 | – | 1390.5 ± 3 | –
x1 = 0.5028 | – | 1.4117 ± 0.0007 | – | 18.5 ± 1.3
x1 = 0.5808 | 1276.69 ± 0.76 | – | 1406.9 ± 3.1 | –
x1 = 0.6047 | – | 1.4115 ± 0.0007 | – | 33.63 ± 2.2
x1 = 0.6941 | 1306.09 ± 0.96 | – | 1418.7 ± 3.2 | –
x1 = 0.7016 | – | 1.411 ± 0.0007 | – | 52.84 ± 1
x1 = 0.7996 | 1329.25 ± 1.2 | – | 1427.8 ± 3.3 | –
x1 = 0.805 | – | 1.4105 ± 0.0007 | – | 90.82 ± 15
x1 = 0.8991 | 1348.14 ± 1.4 | – | 1435.7 ± 3.4 | –
x1 = 0.9595 | – | 1.4095 ± 0.0007 | – | 186.86 ± 67

CCCCn1cc[n+](C)c1.F[P-](F)(F)(F)(F)F [1-butyl-3-methylimidazolium hexafluorophosphate] + C[S+](C)[O-]
Details | mass density, [4] [kg/m3] | refractive index, [3] | speed of sound, [4] [m/s] | viscosity, [4] [mPa·s]
x1 = 0.0011 | 1096.21 ± 0.078 | – | 1484.8 ± 2.9 | –
x1 = 0.0024 | 1097.26 ± 0.079 | – | 1484.9 ± 2.9 | –
x1 = 0.0187 | 1109.73 ± 0.088 | – | 1483.5 ± 2.9 | –
x1 = 0.0321 | 1119.44 ± 0.097 | – | 1482.4 ± 2.9 | –
x1 = 0.05 | – | 1.4676 ± 0.0006 | – | 2.749 ± 0.25
x1 = 0.0552 | 1135.09 ± 0.11 | – | 1480.5 ± 2.9 | –
x1 = 0.0635 | 1140.41 ± 0.12 | – | 1479.9 ± 2.9 | –
x1 = 0.0996 | 1161.89 ± 0.14 | – | 1477.3 ± 2.9 | –
x1 = 0.0997 | – | 1.4606 ± 0.0006 | – | 3.698 ± 0.33
x1 = 0.1477 | – | 1.4546 ± 0.0006 | – | 4.962 ± 0.43
x1 = 0.153 | 1189.47 ± 0.18 | – | 1473.7 ± 2.9 | –
x1 = 0.1977 | – | 1.4491 ± 0.0006 | – | 6.489 ± 0.53
x1 = 0.2381 | 1225.52 ± 0.25 | – | 1469.4 ± 3 | –
x1 = 0.2995 | – | 1.4396 ± 0.0006 | – | 11.95 ± 0.87
x1 = 0.3372 | 1258.28 ± 0.35 | – | 1464.5 ± 3 | –
x1 = 0.3524 | – | 1.4361 ± 0.0006 | – | 16 ± 1.1
x1 = 0.3997 | – | 1.4331 ± 0.0006 | – | 21.17 ± 1.4
x1 = 0.4328 | – | 1.4309 ± 0.0007 | – | 24.61 ± 1.7
x1 = 0.5018 | – | 1.4278 ± 0.0007 | – | 36.98 ± 2.4
x1 = 0.5586 | 1309.44 ± 0.65 | – | 1454.9 ± 3.1 | –
x1 = 0.598 | – | 1.4226 ± 0.0007 | – | 56.31 ± 1.9
x1 = 0.7043 | – | 1.4182 ± 0.0007 | – | 83.73 ± 12
x1 = 0.7791 | 1342.89 ± 1.1 | – | 1448.2 ± 3.3 | –
x1 = 0.7812 | – | 1.4158 ± 0.0007 | – | 117.54 ± 28
x1 = 0.893 | – | 1.4125 ± 0.0007 | – | 173.32 ± 59
x1 = 0.925 | 1359.3 ± 1.5 | – | 1444.7 ± 3.4 | –

CCCCn1cc[n+](C)c1.F[P-](F)(F)(F)(F)F [1-butyl-3-methylimidazolium hexafluorophosphate]
Details | mass density [kg/m3] | refractive index | speed of sound [m/s] | viscosity [mPa·s]
[1] | – | 1.4095 ± 0.0018 | – | –
[2] | 1366.07 ± 3.8 | – | 1443.5 ± 3.5 | 212.1 ± 42

CC#N [acetonitrile]
Details | refractive index | speed of sound [m/s]
[1], Standard Abbe refractometry | 1.3419 ± 0.0007 | –
[2], Sing-around technique in a fixed-path interferometer | – | 1278.7 ± 1.2

[2]
Details | mass density [kg/m3] | viscosity [mPa·s]
– | 776.565 ± 0.31 | 0.339 ± 0.021
